Laboratory results taken from patent publication US20260048068A1, “PHENYLUREA DERIVATIVES AND THEIR PHARMACEUTICAL USES” (HANGZHOU BIO-SINCERITY PHARMA-TECH CO., LTD., priority 2022, published 2026).

Assays:
histamine H3 receptor = histamine H3 receptor (Homo sapiens, UniProt Q9Y5N1); test: FLPPR assay, antagonistic activity at histamine H3 receptor; type: cell-based; details: for inhibition at 0.005 µM: 5 nM compound, read-out: % Inh-AVERAGE @ 5 nM; for inhibition at 0.05 µM: 50 nM compound, read-out: % Inh-AVERAGE @ 50 nM
histamine H3 receptor, sequence (Q9Y5N1 whole entry, species assumed): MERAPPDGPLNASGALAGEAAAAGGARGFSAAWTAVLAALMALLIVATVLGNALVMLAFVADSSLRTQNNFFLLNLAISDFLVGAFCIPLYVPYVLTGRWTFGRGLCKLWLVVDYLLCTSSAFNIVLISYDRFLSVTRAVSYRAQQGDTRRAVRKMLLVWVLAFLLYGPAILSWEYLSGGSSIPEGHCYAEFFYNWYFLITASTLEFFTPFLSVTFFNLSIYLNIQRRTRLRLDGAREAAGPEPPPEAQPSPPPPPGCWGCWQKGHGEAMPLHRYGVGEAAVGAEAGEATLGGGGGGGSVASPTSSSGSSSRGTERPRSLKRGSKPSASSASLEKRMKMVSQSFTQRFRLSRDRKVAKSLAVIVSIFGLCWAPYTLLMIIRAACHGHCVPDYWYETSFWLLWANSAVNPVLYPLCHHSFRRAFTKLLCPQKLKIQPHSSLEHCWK
Method: The FLPPR assay (NIH Assay Guidance Manual: HTS Assay Validation-Section 4.3. Analysis (Potency), htpps://www.ncbi.nlm.nih.gov/books/NBK83783) was performed using SUVN-G3031 as the positive control, and 13 target compounds were tested for the antagonistic activity target to histamine H3 receptor.

CCI model rats = test: Chronic constriction injury (CCI) neuropathic pain model, mechanical withdrawal threshold; type: in vivo; details: CCI SD rats; for Mechanical pain (withdrawal) threshold vs model group: single dose, 0.5-6 h
From the text: Exposing the sciatic nerve on male SD rats' (180-200 g) right hind leg, in the anterior segment where the sciatic nerve is about to bifurcate, use sterile chromic gut thread (No. 4, 0.15 mm in diameter) to ligate 4 loops loosely, with each loop 1-2 mm apart, and suture the muscle and skin to establish the chronic constriction injury (CCI) model. In the sham-operated group, only the sciatic nerve is exposed without ligation, and the muscle and skin are sutured. The mechanical withdrawal threshold is detected by electronic analgesia meter (IITC-2391) on the 7th day for 2 consecutive days.
The CCI model rats with stabilized mechanical withdrawal thresholds were randomly divided into three groups, named model group (model), pregabalin group (Pre, 30 mg/kg), BIOS-A-3 compound group (1 mg/kg), and were administered at 1 mL/100 g by gavage, and the same column of saline was gavaged in Sham and model group. The basic value was determined before drug administration, and the mechanical withdrawal thresholds were detected at 0.5 h, 1 h, 2 h, 4 h and 6 h after a single drug administration, and the p value was calculated by ANOVA with T-test.

hERG channel = hERG channel (Homo sapiens, UniProt Q12809); test: in vitro
hERG channel, sequence (Q12809 whole entry): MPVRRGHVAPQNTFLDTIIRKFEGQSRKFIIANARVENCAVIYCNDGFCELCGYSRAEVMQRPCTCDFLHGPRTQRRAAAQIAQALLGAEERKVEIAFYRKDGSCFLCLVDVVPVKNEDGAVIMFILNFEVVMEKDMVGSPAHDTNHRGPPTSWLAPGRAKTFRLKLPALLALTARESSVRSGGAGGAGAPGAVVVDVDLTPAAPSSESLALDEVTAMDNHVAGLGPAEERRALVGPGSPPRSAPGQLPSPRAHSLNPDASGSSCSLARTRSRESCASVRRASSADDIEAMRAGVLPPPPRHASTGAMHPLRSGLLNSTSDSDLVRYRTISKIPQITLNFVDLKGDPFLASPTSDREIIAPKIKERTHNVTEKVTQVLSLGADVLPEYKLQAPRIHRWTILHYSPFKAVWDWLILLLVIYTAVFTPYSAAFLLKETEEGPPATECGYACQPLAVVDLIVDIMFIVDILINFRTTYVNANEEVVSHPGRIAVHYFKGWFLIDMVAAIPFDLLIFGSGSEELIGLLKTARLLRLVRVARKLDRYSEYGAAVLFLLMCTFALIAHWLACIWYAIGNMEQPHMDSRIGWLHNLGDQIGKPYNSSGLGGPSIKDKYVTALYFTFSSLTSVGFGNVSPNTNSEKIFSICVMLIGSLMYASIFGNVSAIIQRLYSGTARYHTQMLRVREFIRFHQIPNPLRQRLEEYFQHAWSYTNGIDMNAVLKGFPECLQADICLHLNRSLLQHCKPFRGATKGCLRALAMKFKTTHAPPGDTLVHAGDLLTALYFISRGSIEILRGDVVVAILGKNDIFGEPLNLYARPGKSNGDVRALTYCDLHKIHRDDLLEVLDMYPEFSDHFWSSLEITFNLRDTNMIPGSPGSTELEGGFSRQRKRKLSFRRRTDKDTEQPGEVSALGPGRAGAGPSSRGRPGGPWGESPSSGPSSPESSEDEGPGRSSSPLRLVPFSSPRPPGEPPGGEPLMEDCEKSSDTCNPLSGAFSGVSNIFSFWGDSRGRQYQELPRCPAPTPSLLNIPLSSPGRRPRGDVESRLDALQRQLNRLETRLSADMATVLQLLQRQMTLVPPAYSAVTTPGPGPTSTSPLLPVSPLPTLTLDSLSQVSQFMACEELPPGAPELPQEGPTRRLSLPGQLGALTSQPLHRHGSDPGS
From the text: In cardiomyocytes, inhibition of the delayed rectifier potassium current (IKr) channel protein encoded by the human Ether-a-go-go Related Gene (hERG) is the most importane mechanism by which drugs lead to prolongation of the QT interval. hERG is characterized by a specific molecular structure, which allows it to be inhibited by different structures, leading to severe arrhythmias. Statistically, 25-40% of lead compounds show varying degrees of hERG-related toxicity. early evaluation of the effects of compounds on hERG is crucial in the drug development process. The inhibition rate of compounds on hERG channels is examined by manual membrane clamp technique on HEK293 cell line whichi stably ecpressing hERG ion channels.

[1] = Average inhibition rate (%) on hERG channel
[2] = Inhibition rate on hERG channel

With O=C(Nc1ccc(OC2CCN(C3CCC3)CC2)cc1)NC1CCCC1 [BIOS-A-1, 1-(4-((1-cyclobutylpiperidin-4-yl)oxy)phenyl)-3-cyclopentylurea] as the compound, how does the inhibition at 0.005 µM (histamine H3 receptor) read?
Its inhibition at 0.005 µM is 77.4%.

And the inhibition at 0.05 µM (histamine H3 receptor)?
The inhibition at 0.05 µM was 99.7%.

For O=C(NCCN1CCOCC1)Nc1ccc(OC2CCN(C3CCC3)CC2)cc1 [BIOS-A-3, 1-(4-((1-cyclobutylpiperidin-4-yl)oxy)phenyl)-3-(2-morpholinoethyl)urea], which inhibition at 0.005 µM (histamine H3 receptor) is on record?
The inhibition at 0.005 µM was 95.6%.

What about the inhibition at 0.05 µM (histamine H3 receptor) of the same compound?
Its inhibition at 0.05 µM is 100%.

What about the “Mechanical pain (withdrawal) threshold vs model group” value (CCI model rats; 1 mg/kg by gavage) of the same compound?
The value was “significantly increased the mechanical tingling threshold of CCI model rats”.

What about the “Acting time compared with pregabalin” value (CCI model rats; 1 mg/kg vs pregabalin 30 mg/kg) of the same compound?
The value was “had a longer acting time”.

What about the inhibition at 10 µM (hERG channel; [1]) of the same compound?
The inhibition at 10 µM was 1.56%.

O=C(NCCN1CCCCC1)Nc1ccc(OC2CCN(C3CCC3)CC2)cc1 [BIOS-A-4, 1-(4-((1-cyclobutylpiperidin-4-yl)oxy)phenyl)-3-(2-(piperidin-1-yl)ethyl)urea] was tested. Which inhibition at 0.005 µM (histamine H3 receptor) did it give?
The inhibition at 0.005 µM was 102%.

And the inhibition at 0.05 µM (histamine H3 receptor)?
The inhibition at 0.05 µM was 98.6%.

What about the inhibition at 10 µM (hERG channel; [1]) of the same compound?
The inhibition at 10 µM was 0.96%.

Which results are given for O=C(NCCN1CCCC1)Nc1ccc(OC2CCN(C3CCC3)CC2)cc1 [BIOS-A-5, 1-(4-((1-cyclobutylpiperidin-4-yl)oxy)phenyl)-3-(2-(pyrrolidin-1-yl)ethyl)urea]?
inhibition at 0.005 µM (histamine H3 receptor): 101%; inhibition at 0.05 µM (histamine H3 receptor): 99.7%; inhibition at 10 µM (hERG channel; [1]): 2.64%

For C[C@@H]1CCCN1CCNC(=O)Nc1ccc(OC2CCN(C3CCC3)CC2)cc1 [BIOS-A-6, (R)-1-(4-((1-cyclobutylpiperidin-4-yl)oxy)phenyl)-3-(2-(2-methylpyrrolidin-1-yl)ethyl)urea], which inhibition at 0.005 µM (histamine H3 receptor) is on record?
Its inhibition at 0.005 µM is 81.3%.

What about the inhibition at 0.05 µM (histamine H3 receptor) of the same compound?
Its inhibition at 0.05 µM is 101%.

With O=C(NCCN1CCC(F)(F)CC1)Nc1ccc(OC2CCN(C3CCC3)CC2)cc1 [BIOS-A-7, 1-(4-((1-cyclobutylpiperidin-4-yl)oxy)phenyl)-3-(2-(4,4-difluoropiperidin-1-yl)ethyl)urea] as the compound, how does the inhibition at 0.005 µM (histamine H3 receptor) read?
Its inhibition at 0.005 µM is 101%.

And the inhibition at 0.05 µM (histamine H3 receptor)?
The inhibition at 0.05 µM was 100%.

For O=C(NCCN1CCSCC1)Nc1ccc(OC2CCN(C3CCC3)CC2)cc1 [BIOS-A-8, 1-(4-((1-cyclobutylpiperidin-4-yl)oxy)phenyl)-3-(2-thiomorpholinoethyl)urea], which inhibition at 0.005 µM (histamine H3 receptor) is on record?
Its inhibition at 0.005 µM is 100%.

And the inhibition at 0.05 µM (histamine H3 receptor)?
Its inhibition at 0.05 µM is 100%.

With O=C(NCCN1CCC(O)CC1)Nc1ccc(OC2CCN(C3CCC3)CC2)cc1 [BIOS-A-9, 1-(4-((1-cyclobutylpiperidin-4-yl)oxy)phenyl)-3-(2-(4-hydroxypiperidin-1-yl)ethyl)urea] as the compound, how does the inhibition at 0.005 µM (histamine H3 receptor) read?
Its inhibition at 0.005 µM is 101%.

And the inhibition at 0.05 µM (histamine H3 receptor)?
Its inhibition at 0.05 µM is 101%.

With CN1CCN(CCNC(=O)Nc2ccc(OC3CCN(C4CCC4)CC3)cc2)CC1 [BIOS-A-10, 1-(4-((1-cyclobutylpiperidin-4-yl)oxy)phenyl)-3-(2-(4-methylpiperazin-1-yl)ethyl)urea] as the compound, how does the inhibition at 0.005 µM (histamine H3 receptor) read?
The inhibition at 0.005 µM was 99.7%.

What about the inhibition at 0.05 µM (histamine H3 receptor) of the same compound?
Its inhibition at 0.05 µM is 101%.

What about the inhibition at 10 µM (hERG channel; [1]) of the same compound?
Its inhibition at 10 µM is -2.92%.

And the inhibition at 10 µM (hERG channel; [2])?
The inhibition at 10 µM was less than 5%.

For CC(C)N1CCN(CCNC(=O)Nc2ccc(OC3CCN(C4CCC4)CC3)cc2)CC1 [BIOS-A-11, 1-(4-((1-cyclobutylpiperidin-4-yl)oxy)phenyl)-3-(2-(4-isopropylpiperazin-1-yl)ethyl)urea], which inhibition at 0.005 µM (histamine H3 receptor) is on record?
The inhibition at 0.005 µM was 100%.

And the inhibition at 0.05 µM (histamine H3 receptor)?
Its inhibition at 0.05 µM is 100%.

And the inhibition at 10 µM (hERG channel; [1])?
The inhibition at 10 µM was -1.22%.

And the inhibition at 10 µM (hERG channel; [2])?
Its inhibition at 10 µM is less than 5%.

Which inhibition at 0.005 µM (histamine H3 receptor) does the source give for CN1CCCN(CCNC(=O)Nc2ccc(OC3CCN(C4CCC4)CC3)cc2)CC1 [BIOS-A-13, 1-(4-((1-cyclobutylpiperidin-4-yl)oxy)phenyl)-3-(2-(4-methyl-1,4-diazepan-1-yl)ethyl)urea] here?
The inhibition at 0.005 µM was 101%.

What about the inhibition at 0.05 µM (histamine H3 receptor) of the same compound?
Its inhibition at 0.05 µM is 101%.

What about the inhibition at 10 µM (hERG channel; [1]) of the same compound?
The inhibition at 10 µM was -0.54%.

How did the inhibition at 0.005 µM (histamine H3 receptor) turn out when O=C(NCCN1CCNCC1)Nc1ccc(OC2CCN(C3CCC3)CC2)cc1 [BIOS-A-14, 1-(4-((1-cyclobutylpiperidin-4-yl)oxy)phenyl)-3-(2-(piperazin-1-yl)ethyl)urea] was run?
The inhibition at 0.005 µM was 100%.

And the inhibition at 0.05 µM (histamine H3 receptor)?
The inhibition at 0.05 µM was 99.7%.

And the inhibition at 10 µM (hERG channel; [1])?
Its inhibition at 10 µM is -0.62%.

What does the source list for O=C(NCCN1CCN(C2CCC2)CC1)Nc1ccc(OC2CCN(C3CCC3)CC2)cc1 [BIOS-A-15, 1-(2-(4-cyclobutylpiperazin-1-yl)ethyl)-3-(4-((1-cyclobutylpiperidin-4-yl)oxy)phenyl)urea]?
inhibition at 0.005 µM (histamine H3 receptor): 101%; inhibition at 0.05 µM (histamine H3 receptor): 99.9%; inhibition at 10 µM (hERG channel; [1]): -0.55%

How did the “Mechanical pain (withdrawal) threshold vs model group” value (CCI model rats; 30 mg/kg by gavage) turn out when CC(C)C[C@H](CN)CC(=O)O [Pregabalin, reference compound] was run?
Its value is “only increased the mechanical sting threshold of CCI rats at 0.5 h and 1 h after administration”.
